Results taken from patent US20220386582A1, “METHOD AND DEVICE TO TRAP ACARIDS” (DOMOBIOS, priority 2015, published 2022).

Experiments:
Dermatophagoides farinae = assay: Mini-mattress trap: attraction capabilities of attracting solutions sprayed on felt; type: in vivo
Experimental: (§1) Rearing: The species studied were Dermatophagoides pteronyssinus and Dermatophagoides farinae, house dust mite common in mattresses in Eurasia. Mites are reared in Petri dishes and fed with human skin flakes (skin and whiskers obtained by cleaning electric […]). All mites were reared together under defined conditions (20° C. and 75% relative humidity). The experiments took place in a room kept at 20° C. and 40% relative humidity. Aim of the experiments: The aim was to test the trap in condition similar to the conditions that will be met by the user of the trap. Materials and methods: The mattresses were built at a smaller scale (15× reduction) than usual mattresses. These mini-mattresses are made in polyurethane and covered by a cover in cotton. They were infested with mites since at least 3 months. The fabric was a felt of 20 mg/cm^2 and is a rectangle of 10 cm×20 cm. It was placed on the mini-mattress. Then the attracting solution was sprayed on the fabric with a spray bottle. The fabric was left in place on the mattress during one hour. During this time, the mites moved in the felt. It is very difficult to count directly the mites hidden in the mattress and in the fabric. Therefore, we used a Berlèse funnel which is a device that is usually used to separate insects from litter. Here, it was used to separate the mites from their mattress or from the fabric. The Berlèse funnel uses a light bulb to heat and dry the mattress, thus driving the mites downwards through a screen and into a collecting jar containing some food and some water. […] They are attracted by a source of moisture and the smell of food. The mattress or blanket were therefore placed in the funnel (FIG. 2). The mites went downwards in the direction of the jar, then in the jar. The harvest of the jar containing the mites took place after one day. Mites had then 24 hours to migrate to the jar collector. As a substantial proportion of the population is immobile (moulting mites), trapping is less efficient than it would be otherwise and estimate of population size that is trapped are likely to be biased. To avoid this bias and make a proper assessment of the populations in infested mattresses, mattresses were carefully brushed with a soft brush at the end of the manipulation meaning that immobile mites and eggs also fall into the funnel. Fabric was carefully brushed too. The Berlèze funnel was rinsed with ethanol. Thus, mites still on the inner wall of the funnel were driven by ethanol in the jar collector. At the end of the experiment, the jar contained: the food used as attracting to mites, a small amount of water also used for attracting, mites, and ethanol. The jar was emptied into a Petri dish and we counted mites under binocular. Counting of mites was made under binocular microscope (magnification 10×). The set-up is illuminated with a cold lamp (KL 1500 LCD, Schott ●). The felt was sprayed with different attracting compositions: a solution of lavandulol, a solution of Tween 60, a combination of lavandulol and Tween 60, a solution of citral, and the attracting solution commercialized under the brand name Acar'up were compared at various dilutions.

[1] = system: Dermatophagoides pteronyssinus; assay: as above; type: in vivo
Experimental: as §1

[2] = system: Dermatophagoides pteronyssinus; assay: Binary choice test in Petri dish, colored felt with attracting agent versus white felt with water; type: in vivo
Experimental: Aim of the experiments: All experiments are tests of binary choice aiming to determine the preference of mites and the place where they prefer to stay (at least for 30 min).
Rearing: The species studied was Dermatophagoides pteronyssinus, a dust mite common in mattresses in Eurasia. Mites are reared in Petri dishes and fed with human skin flakes (skin and whiskers obtained by cleaning electric shavers). All mites were reared together under defined conditions (20° C. and 75% relative humidity). The experiments took place in a room kept at 20° C. and 40% relative humidity.
Materials and methods: A group of mites (20<n<40) was placed in the center of a Petri dish (ø5.5 cm) around which two semi-circles of felt were placed (see FIG. 1). The pieces of felts were 70 mg/cm^2, their thickness was 2 mm. One felt is the control (control felt), for instance impregnated with water; the other felt is the felt with the tested item, for instance the felt that is impregnated with a chemical compound that is tested.
Mites move spontaneously towards one of the two felts.
Observations and counting of mites was made under binocular microscope (magnification 10×). The set-up is illuminated with a cold lamp (KL 1500 LCD, Schott ●), the lighting is symmetric and the light intensity was 50Klux. The experimental conditions were controlled in the room (T° C.: 19-22° C. and RH 40%). […]

mites = conditions: washing at low temperature, final concentration of 0.03% benzyl benzoate (Bischoff et al 1998); cited from earlier work
[3] = Dilution 10^−6 (* mixture of a lavandulol solution at 10^−6 and a Tween 60 solution at 10^−6)

| Molecule | attraction capabilities, percentage of mites (Dermatophagoides farinae; Dilution 10^−1) | attraction capabilities, percentage of mites (Dermatophagoides farinae; Dilution 10^−3) | attraction capabilities, percentage of mites (Dermatophagoides farinae; [3]) | attraction capabilities, percentage of mites (Dermatophagoides farinae; Dilution 10^−9) | attraction capabilities, percentage of mites (Dermatophagoides farinae; Dilution Undiluted) | attraction capabilities, percentage of mites ([1]; Dilution 10^−3) | attraction capabilities, percentage of mites [1, 3] | attraction capabilities, percentage of mites ([1]; Dilution 10^−9) | attraction capabilities, percentage of mites ([1]; Dilution Undiluted) | Mean (choice of mites for the tested felt) ([2]; blue felt + 1 μl attracting agent (dil 10^−6) versus white felt + 1 μl H2O, 18 trials) | migration of the mites toward the blue felt ([2]; blue felt in combination with citral) | mite control in delicate garments (mites) |
| --- | --- | --- | --- | --- | --- | --- | --- | --- | --- | --- | --- | --- |
| CC(C)=CCCC(C)=CC=O [Citral, 3,7-dimethyl-2,6-octadienal, reference compound] | 49% | 36% | 48% | 43% | 5% | 23% | 76% | 56% | 3% | 0.84 | 84% | – |
| O=C(OCc1ccccc1)c1ccccc1 [benzyl benzoate] | – | – | – | – | – | – | – | – | – | – | – | possible to achieve mite control |
| Polyethylene glycol sorbitan monostearate [Tween 60] | – | 54% | 81% | 39% | 7% | 70% | 78% | 57% | 14% | – | – | – |
